Experimental data reported in ChEMBL document CHEMBL1201862, “PubChem BioAssay data set” (2004).
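Grown in 96-well plates, cells were treated for 48 hours with each compound at five concentrations. Insufficient inhibition: endpoint recorded as highest concentration tested. The concentration for 50% growth inhibition is given as GI50.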 The source made the active and inactive calls. Rule as the data show it: active = GI50 up to about 1.1 µM and inactive = higher. Where a SMILES comes first, the peptide text is derived from it. [ ]: non-standard residue; d: D form. The star is where a group is joined. ξ: configuration not given here. X38 = O=C(OCc1ccccc1)[C@@H]1CCC[C@H]1N*; Fmoc = O=C(OCC1c2ccccc2-c2ccccc21)*; ξW = NC(Cc1c[nH]c2ccccc12)C(=O)O; ξF = NC(Cc1ccccc1)C(=O)O; Boc = CC(C)(C)OC(=O)*; ξK = NCCCCC(N)C(=O)O; ξT = CC(O)C(N)C(=O)O; tBu = CC(C)(C)*

How the values were obtained:
Test in all cases: growth of human tumour cells (NCI), 48 h
A549 = system: A549
CAKI-1 = system: CAKI-1
CCRF-CEM = system: CCRF-CEM
COLO 205 = system: COLO 205
HCT-15 = system: HCT-15
HL-60 = system: HL-60
HOP-62 = system: HOP-62
HOP-92 = system: HOP-92
K562 = system: K562
Malme-3M = system: Malme-3M
OVCAR-5 = system: OVCAR-5
OVCAR-8 = system: OVCAR-8
RPMI-8226 = system: RPMI-8226
SF-268 = system: SF-268
SF-295 = system: SF-295
SK-MEL-28 = system: SK-MEL-28
SK-OV-3 = system: SK-OV-3
SR = system: SR
U-251 = system: U-251
UO-31 = system: UO-31

Compound	GI50 (A549)	GI50 (CAKI-1)	GI50 (CCRF-CEM)	GI50 (COLO 205)	GI50 (HCT-15)	GI50 (HL-60)	GI50 (HOP-62)	GI50 (HOP-92)	GI50 (K562)	GI50 (Malme-3M)	GI50 (OVCAR-5)	GI50 (OVCAR-8)	GI50 (RPMI-8226)	GI50 (SF-268)	GI50 (SF-295)	GI50 (SK-MEL-28)	GI50 (SK-OV-3)	GI50 (SR)	GI50 (U-251)	GI50 (UO-31)
Cc1cc(S(=O)(=O)Nc2nnc3cc(C(F)(F)F)cc(C)n23)c(S)cc1Cl	21.3 µM (inactive)	97.5 µM (inactive)	> 100 µM (inactive)	> 100 µM (inactive)	> 91.6 µM	> 100 µM (inactive)	35.2 µM (inactive)	> 76.9 µM (inactive)	> 100 µM (inactive)	> 100 µM (inactive)	> 84.9 µM (inactive)	> 100 µM (inactive)	> 100 µM (inactive)	> 100 µM (inactive)	55.1 µM (inactive)	> 100 µM (inactive)	38.3 µM (inactive)	> 100 µM (inactive)	29 µM (inactive)	39.1 µM (inactive)
N=C1c2ccccc2C(=O)c2c(NCCNCCO)ccc(O)c21	6.3 µM (inactive)	10.3 µM (inactive)	9.62 µM (inactive)	4.73 µM (inactive)	25.5 µM	6.85 µM (inactive)	4.91 µM (inactive)	24.9 µM (inactive)	3.64 µM (inactive)	13.7 µM (inactive)	16 µM (inactive)	4.72 µM (inactive)	7.19 µM (inactive)	3.3 µM (inactive)	12.5 µM (inactive)	8.15 µM (inactive)	6.55 µM (inactive)	0.579 µM (active)	4.46 µM (inactive)	7.83 µM (inactive)
Cc1c(C)c(C)c(-n2c(=O)n(C)c(=O)n2-c2cc(C(C)(C)C)cc(C(C)(C)C)c2O)c(C)c1C	5.66 µM (inactive)	11.7 µM (inactive)	8.13 µM (inactive)	7.19 µM (inactive)	8.43 µM	3.04 µM (inactive)	14.4 µM (inactive)	5.5 µM (inactive)	6.21 µM (inactive)	11.9 µM (inactive)	13.3 µM (inactive)	10.4 µM (inactive)	4.63 µM (inactive)	12.4 µM (inactive)	8.99 µM (inactive)	13.7 µM (inactive)	12.4 µM (inactive)	3.91 µM (inactive)	6.95 µM (inactive)	3.08 µM (inactive)
Nc1c(-c2ccc(Cl)c(Cl)c2)c2ccc([N+](=O)[O-])cc2c(=O)n1-c1nc2ccccc2s1	0.407 µM (active)	0.719 µM (active)	0.223 µM (active)	1.5 µM (inactive)	0.46 µM	0.318 µM (active)	1.06 µM (active)	0.296 µM (active)	0.367 µM (active)	0.403 µM (active)	1.92 µM (inactive)	0.366 µM (active)	0.391 µM (active)	0.531 µM (active)	0.551 µM (active)	18.2 µM (inactive)	0.689 µM (active)	0.417 µM (active)	0.425 µM (active)	0.445 µM (active)
COc1cccc(/C(Cl)=C(\C=O)c2cccc(OC)c2)c1	12.1 µM (inactive)	39 µM (inactive)	3.97 µM (inactive)	11.9 µM (inactive)	5.6 µM	2.69 µM (inactive)	12.3 µM (inactive)	12.4 µM (inactive)	4.06 µM (inactive)	0.946 µM (active)	19.6 µM (inactive)	10.7 µM (inactive)	4.62 µM (inactive)	3.88 µM (inactive)	12.2 µM (inactive)	11.7 µM (inactive)	20 µM (inactive)	5.35 µM (inactive)	10.1 µM (inactive)	13 µM (inactive)
COC1CC(OC(=O)c2ccccc2)C(OC(=O)c2ccccc2)C(C)O1 (stereo not given)	> 100 µM (inactive)	> 100 µM (inactive)	> 100 µM (inactive)	> 100 µM (inactive)	> 100 µM	> 100 µM (inactive)	> 100 µM (inactive)	19.3 µM (inactive)	> 100 µM (inactive)	> 100 µM (inactive)	> 100 µM (inactive)	> 100 µM (inactive)	> 100 µM (inactive)	> 100 µM (inactive)	> 100 µM (inactive)	> 100 µM (inactive)	> 100 µM (inactive)	> 100 µM (inactive)	> 100 µM (inactive)	> 100 µM (inactive)
Cn1c2ccccc2c2ccc3c(c21)C(=O)c1ccccc1C3=O	24.7 µM (inactive)	22.2 µM (inactive)	3.02 µM (inactive)	26.6 µM (inactive)	15.1 µM	2.75 µM (inactive)	18 µM (inactive)	18.9 µM (inactive)	11.8 µM (inactive)	5.86 µM (inactive)	> 100 µM (inactive)	17.3 µM (inactive)	12.2 µM (inactive)	18.7 µM (inactive)	18.2 µM (inactive)	14.6 µM (inactive)	15.8 µM (inactive)	3.29 µM (inactive)	16.4 µM (inactive)	25.5 µM (inactive)
CSC(=S)Nc1cc(C)cc(C)n1	> 31.6 µM (inactive)	> 31.6 µM (inactive)	> 31.6 µM (inactive)	> 31.6 µM (inactive)	> 31.6 µM	> 31.6 µM (inactive)	> 100 µM (inactive)	> 31.6 µM (inactive)	> 31.6 µM (inactive)	> 31.6 µM (inactive)	> 31.6 µM (inactive)	> 31.6 µM (inactive)	> 31.6 µM (inactive)	> 31.6 µM (inactive)	> 31.6 µM (inactive)	> 31.6 µM (inactive)	> 31.6 µM (inactive)	> 10 µM (inactive)	> 31.6 µM (inactive)	> 31.6 µM (inactive)
Cc1cc(=O)n2c3c(c4c(cc13)c(CN(C)C)cc(=O)n4C)OC2	10 µM (inactive)	13.1 µM (inactive)	> 24.8 µM (inactive)	11.7 µM (inactive)	6.15 µM	22.2 µM (inactive)	15.2 µM (inactive)	28.5 µM (inactive)	29.8 µM (inactive)	12.4 µM (inactive)	37.9 µM (inactive)	9.1 µM (inactive)	25.2 µM (inactive)	15.5 µM (inactive)	16.9 µM (inactive)	31.8 µM (inactive)	26.8 µM (inactive)	> 25.6 µM (inactive)	32.4 µM (inactive)	8.04 µM (inactive)
CC(=O)OCC1OC(n2ccc(=O)[nH]c2=O)C(OC(C)=O)C(OC(C)=O)C1OC(C)=O (stereo not given)	> 100 µM (inactive)	> 100 µM (inactive)	> 100 µM (inactive)	> 100 µM (inactive)	> 100 µM	> 10 µM (inactive)	> 100 µM (inactive)	> 100 µM (inactive)	> 100 µM (inactive)	> 100 µM (inactive)	> 100 µM (inactive)	> 100 µM (inactive)	> 100 µM (inactive)	> 100 µM (inactive)	> 100 µM (inactive)	> 100 µM (inactive)	> 100 µM (inactive)	> 100 µM (inactive)	> 100 µM (inactive)	> 100 µM (inactive)
CCOC(=O)c1ccc2nc(NC(=O)COC(=O)CSc3nc(C)cc(C)n3)sc2c1	42.9 µM (inactive)	26.3 µM (inactive)	1.52 µM (inactive)	99.1 µM (inactive)	46.6 µM	15.8 µM (inactive)	13.7 µM (inactive)	24.8 µM (inactive)	> 100 µM (inactive)	> 100 µM (inactive)	20.4 µM (inactive)	57.9 µM (inactive)	53 µM (inactive)	67.8 µM (inactive)	36.6 µM (inactive)	97.3 µM (inactive)	32.5 µM (inactive)	52.7 µM (inactive)	48.6 µM (inactive)	13.9 µM (inactive)
COc1cc(/C=C/c2ccc(Br)cc2)cc(OC)c1OC	11.7 µM (inactive)	6.24 µM (inactive)	11.8 µM (inactive)	8.83 µM (inactive)	7 µM	3.74 µM (inactive)	13.7 µM (inactive)	12.1 µM (inactive)	3.71 µM (inactive)	6.08 µM (inactive)	16.6 µM (inactive)	28.3 µM (inactive)	3.99 µM (inactive)	9.12 µM (inactive)	6.73 µM (inactive)	6.21 µM (inactive)	20.7 µM (inactive)	16.1 µM (inactive)	10.1 µM (inactive)	9.77 µM (inactive)
CC(OC(C)(C)C)C(NC(=O)C(CCCCNC(=O)OC(C)(C)C)NC(=O)C(Cc1c[nH]c2ccccc12)NC(=O)C(Cc1ccccc1)NC(=O)OCC1c2ccccc2-c2ccccc21)C(=O)NC(Cc1ccccc1)C(=O)N[C@@H]1CCC[C@H]1C(=O)OCc1ccccc1 (stereo not given in full) (Fmoc-[ξF][ξW][ξK](Boc)[ξT](tBu)[ξF]-X38)	> 100 µM (inactive)	62.2 µM (inactive)	> 100 µM (inactive)	> 100 µM (inactive)	> 100 µM	> 100 µM (inactive)	> 100 µM (inactive)	> 100 µM (inactive)	> 100 µM (inactive)	> 100 µM (inactive)	> 100 µM (inactive)	> 100 µM (inactive)	> 100 µM (inactive)	> 100 µM (inactive)	> 100 µM (inactive)	> 100 µM (inactive)	> 100 µM (inactive)	> 100 µM (inactive)	> 100 µM (inactive)	> 100 µM (inactive)
